# Data taken from patent US9309222B2, “Phenyl linked quinolinyl modulators of RORγt” (Janssen Pharmaceutica NV, priority 2012, dated 2016).
# Several values for one entry are separate records, joined by “and”; a condition that tells them apart may be missing. Equal entries are not always repeated.
# Tests used:
# [1] = molecular target: T1, human RORγt ligand binding domain (RORγt LBD) (Homo sapiens, UniProt P51449); assay: RORγt ThermoFluor assay (thermal shift, ligand binding affinity); conditions: estimated from concentration response of thermal shift
# T1 construct: His-tag (N); TurboTEV protease cleavage site (ENLYFQG) (N); made in house; host or cells: E. coli (pHIS1, modified pET vector)
# T1 sequence (P51449 with tags, fused parts or gaps): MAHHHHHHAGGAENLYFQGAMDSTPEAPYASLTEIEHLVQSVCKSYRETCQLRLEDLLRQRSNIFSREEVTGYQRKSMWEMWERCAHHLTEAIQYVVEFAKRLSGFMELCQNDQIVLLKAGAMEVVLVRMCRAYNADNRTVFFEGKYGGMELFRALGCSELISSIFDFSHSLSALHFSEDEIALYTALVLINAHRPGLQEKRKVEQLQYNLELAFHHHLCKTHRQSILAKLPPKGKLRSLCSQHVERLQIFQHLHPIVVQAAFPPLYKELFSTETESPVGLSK
# Method in brief: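 Thermal shift of 0.065 mg/mL RORγt with 60 μM 1,8-ANS in 100 mM Hepes pH 7.0, 10 mM NaCl, 2.5 mM GSH, 0.002% Tween-20. Compounds in 1:2 series from 10 mM DMSO stock. Dye fluorescence (500 nm emission) tracked versus temperature; ΔTm used to derive KD.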
# [2] = system: IL-17 production by CD4 T cells; assay: Human Th17 assay (IL-17 production by CD4 T cells under Th17 differentiation conditions); assay type: cell-based; conditions: IL-17 in supernatant after 3 days
# Experimental: The human Th17 assay tests the effect of RORγt modulatory compounds on IL-17 production by CD4 T cells under conditions which favor Th17 differentiation. Total CD4^+ T cells were isolated from the peripheral blood mononuclear cells (PBMC) of healthy donors using a CD4^+ T cell isolation kit II, following the manufacturer's instructions (Miltenyi Biotec). […] 50 μL of compound at titrated concentrations in DMSO were added into each well at final DMSO concentration at 0.2%. Cells were incubated for 1 hour, then 50 μL of Th17 cell differentiation medium was added to each well. The final concentrations of antibodies and cytokines (R&D Systems) in differentiation medium were: 3×10^6/mL anti-CD3/CD28 beads (prepared using human T cell activation/expansion kit, Miltenyi Biotec), 10 μg/mL anti-IL4, 10 μg/mL anti-IFNγ, 10 ng/mL IL113, 10 ng/mL IL23, 50 ng/mL IL6, 3 ng/mL TGFβ and 20 U/mL IL2. Cells were cultured at 37° C. and 5% CO2 for 3 days. Supernatants were collected and the accumulated IL-17 in culture was measured by using MULTI-SPOT® Cytokine Plate following manufacture's instruction (Meso Scale Discovery). The plate was read using Sector Imager 6000, and IL-17 concentration was extrapolated from the standard curve. The IC50s were determined by GraphPad.
# human RORγt LBD = molecular target: T2, human RORγt LBD (Homo sapiens, UniProt P51449); assay: RORγt reporter assay (GAL4-RORγt LBD luciferase in HEK293T cells); assay type: cell-based; conditions: for IC50 / RORγt reporter Assay, % inhibition @ 6 μM: HEK293T cells; for IC50: 24 hours compound treatment; for inhibition at 6 µM: HEK-293T, read-out: RORγt reporter Assay, % inhibition @ 6 μM, HEK293T cells, 6 μM compound; for RORγt reporter Assay, % inhibition @ 6 μM: 6 μM compound
# T2 construct: expressed in transfected cells
# T2 sequence (P51449 258-518): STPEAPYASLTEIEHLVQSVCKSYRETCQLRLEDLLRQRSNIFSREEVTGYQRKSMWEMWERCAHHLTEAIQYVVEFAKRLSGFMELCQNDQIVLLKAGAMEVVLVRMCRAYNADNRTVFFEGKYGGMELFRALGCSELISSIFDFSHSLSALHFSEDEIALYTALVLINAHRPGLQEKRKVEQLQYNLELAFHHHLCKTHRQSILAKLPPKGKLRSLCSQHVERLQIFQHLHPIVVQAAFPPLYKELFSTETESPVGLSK
# Method in brief: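 Read-out is the firefly-to-renilla luciferase ratio versus compound concentration, after 24 h compound exposure of cells in phenol-red-free DMEM/5% lipid-reduced FCS. Cells were HEK293T bulk-transfected with a GAL4-responsive firefly reporter (pGL4.31) and GAL4 DBD–wild-type human RORγt LBD fusion (pBIND, renilla as transfection/viability control).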
Structure (SMILES),Kd [1],IC50 [2],IC50 (human RORγt LBD),inhibition at 6 µM (human RORγt LBD),"RORγt reporter Assay, % inhibition @ 6 μM (human RORγt LBD)","IC50 ([2]; Homo sapiens, CD4+ T, 72 h)"
"CC(=O)N1CCC(C(O)(c2ccccc2)c2ccc3nc(C(F)(F)F)c(-c4ccccc4)c(C(F)(F)F)c3c2)CC1 (single isomer, unassigned) [Example 169b, 1-(4-(Hydroxy(phenyl)(3-phenyl-2,4-bis(trifluoromethyl)quinolin-6-yl)methyl)piperidin-1-yl)ethanone]",3 nM,27 nM,3.8 nM,94%,,
"CC(=O)N1CCC(C(O)(c2ccccc2)c2ccc3nc(C(F)(F)F)c(-c4ccccc4)c(C(F)(F)F)c3c2)CC1 (single isomer, unassigned) [Example 169c, 1-(4-(Hydroxy(phenyl)(3-phenyl-2,4-bis(trifluoromethyl)quinolin-6-yl)methyl)piperidin-1-yl)ethanone]",52 nM,110 nM,100 nM,,96%,
"Cc1cc(C(O)(c2ccc(F)cc2)c2cncn2C)cc2c(C#N)c(-c3cccc(F)c3)c(C#N)nc12 (single isomer, unassigned) [Example 175c, 3-(3-Fluorophenyl)-6-((4-fluorophenyl)(hydroxy)(1-methyl-1H-imidazol-5-yl)methyl)-8-methylquinoline-2,4-dicarbonitrile]",64 nM,,140 nM,,95%,110 nM
"Cc1cc(C(O)(c2ccc(C(F)(F)F)nc2)c2cncn2C)cc2c(C#N)c(-c3cccc(F)c3)c(C#N)nc12 (single isomer, unassigned) [Example 176c, 3-(3-Fluorophenyl)-6-(hydroxy(1-methyl-1H-imidazol-5-yl)(6-(trifluoromethyl)pyridin-3-yl)methyl)-8-methylquinoline-2,4-dicarbonitrile]",68 nM,,320 nM,,95%,310 nM
"COc1nc2c(C)cc(C(O)(c3ccc(C(F)(F)F)nc3)c3cncn3C)cc2c(Cl)c1-c1cccc(F)c1 (single isomer, unassigned) [Example 177b, (4-Chloro-3-(3-fluorophenyl)-2-methoxy-8-methylquinolin-6-yl)(1-methyl-1H-imidazol-5-yl)(6-(trifluoromethyl)pyridin-3-yl)methanol]",22 nM,200 nM,400 nM,83%,,
"COc1nc2c(C)cc(C(O)(c3ccc(C(F)(F)F)nc3)c3cncn3C)cc2c(Cl)c1-c1cccc(F)c1 (single isomer, unassigned) [Example 177c, (4-Chloro-3-(3-fluorophenyl)-2-methoxy-8-methylquinolin-6-yl)(1-methyl-1H-imidazol-5-yl)(6-(trifluoromethyl)pyridin-3-yl)methanol]",1300 nM,2500 nM,360 nM,,98%,
"COc1nc2c(C)cc(C(O)(c3ccc(F)cc3)c3cncn3C)cc2c(Cl)c1-c1cccc(F)c1 (single isomer, unassigned) [Example 178c, (4-Chloro-3-(3-fluorophenyl)-2-methoxy-8-methylquinolin-6-yl)(4-fluorophenyl)(1-methyl-1H-imidazol-5-yl)methanol]",29 nM,,35 nM,,96%,45 nM
"COc1nc2c(C)cc(C(O)(c3ccc(C(F)(F)F)nc3)c3cncn3C)cc2c(C#N)c1-c1cccc(F)c1 (single isomer, unassigned) [Example 179c, 3-(3-Fluorophenyl)-6-(hydroxy(1-methyl-1H-imidazol-5-yl)(6-(trifluoromethyl)pyridin-3-yl)methyl)-2-methoxy-8-methylquinoline-4-carbonitrile]",63 nM,,480 nM,,96%,~1000 nM
"COc1nc2c(C)cc(C(O)(c3ccc(F)cc3)c3cncn3C)cc2c(C#N)c1-c1cccc(F)c1 (single isomer, unassigned) [Example 180b, 3-(3-Fluorophenyl)-6-((4-fluorophenyl)(hydroxy)(1-methyl-1H-imidazol-5-yl)methyl)-2-methoxy-8-methylquinoline-4-carbonitrile]",67000 nM,~5000 nM,1900 nM and ~3000 nM,80%,,
"COc1nc2c(C)cc(C(O)(c3ccc(F)cc3)c3cncn3C)cc2c(C#N)c1-c1cccc(F)c1 (single isomer, unassigned) [Example 180c, 3-(3-Fluorophenyl)-6-((4-fluorophenyl)(hydroxy)(1-methyl-1H-imidazol-5-yl)methyl)-2-methoxy-8-methylquinoline-4-carbonitrile]",93 nM,97 nM,170 nM,,99%,
"CC(=O)N1CCC(C(O)(c2ccc3nc(C(F)(F)F)c(-c4ccccc4)c(C(F)(F)F)c3c2)c2cncn2C)CC1 (single isomer, unassigned) [Example 181b, 1-(4-(Hydroxy(1-methyl-1H-imidazol-5-yl)(3-phenyl-2,4-bis(trifluoromethyl)quinolin-6-yl)methyl)piperidin-1-yl)ethanone]",27 nM,,62 nM,99%,,120 nM
"CC(=O)N1CCC(C(O)(c2ccc3nc(C(F)(F)F)c(-c4ccccc4)c(C(F)(F)F)c3c2)c2cncn2C)CC1 (single isomer, unassigned) [Example 181c, 1-(4-(Hydroxy(1-methyl-1H-imidazol-5-yl)(3-phenyl-2,4-bis(trifluoromethyl)quinolin-6-yl)methyl)piperidin-1-yl)ethanone]",23 nM,160 nM,53 nM,,105%,
"COc1nc2c(C)cc(C(O)(c3ccc(C(F)(F)F)nc3)c3cncn3C)cc2c(Cl)c1-c1ccc(OC(F)(F)F)cc1 (single isomer, unassigned) [Example 183b, (4-Chloro-2-methoxy-8-methyl-3-(4-(trifluoromethoxy)phenyl)quinolin-6-yl)(1-methyl-1H-imidazol-5-yl)(6-(trifluoromethyl)pyridin-3-yl)methanol]",3.7 nM,,> 6000 nM,,34%,1200 nM
"COc1nc2c(C)cc(C(O)(c3ccc(C(F)(F)F)nc3)c3cncn3C)cc2c(Cl)c1-c1ccc(OC(F)(F)F)cc1 (single isomer, unassigned) [Example 183c, (4-Chloro-2-methoxy-8-methyl-3-(4-(trifluoromethoxy)phenyl)quinolin-6-yl)(1-methyl-1H-imidazol-5-yl)(6-(trifluoromethyl)pyridin-3-yl)methanol]",190 nM,870 nM,360 nM,,73%,
"Cc1cc(C(O)(c2ccc(C(F)(F)F)nc2)c2cncn2C)cc2c(C#N)c(-c3ccc(F)cc3)c(C#N)nc12 (single isomer, unassigned) [Example 184c, 3-(4-Fluorophenyl)-6-(hydroxy(1-methyl-1H-imidazol-5-yl)(6-(trifluoromethyl)pyridin-3-yl)methyl)-8-methylquinoline-2,4-dicarbonitrile]",41 nM,,260 nM,,97%,700 nM
"Cn1cncc1C(O)(c1ccc2nc(C(F)(F)F)c(-c3ccccc3)c(C(F)(F)F)c2c1)c1ccccn1 (single isomer, unassigned) [Example 185b, (1-Methyl-1H-imidazol-5-yl)(3-phenyl-2,4-bis(trifluoromethyl)quinolin-6-yl)(pyridin-2-yl)methanol]",29 nM,,130 nM,103%,,96 nM
